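Protocol summary: plate cells (96-well), add compound at 5 concentrations, incubate 48 h, interpolate endpoints linearly. At the TGI there is no net growth.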 Where a SMILES comes first, the peptide text is derived from it. The star is where a group is joined. Boc = CC(C)(C)OC(=O)*
Legend:
Assay in all cases: NCI-60 cell line screen, 48 h
[1] = tested on: HCT-116 colon
[2] = tested on: HS 578T breast
[3] = tested on: MCF7 breast
[4] = tested on: MDA-MB-231 breast
[5] = tested on: NCI-H460 lung
[6] = tested on: OVCAR-4 ovarian
[7] = tested on: SF-268 CNS
[8] = tested on: SK-MEL-28 melanoma
[9] = tested on: SN12C renal
[10] = tested on: TK-10 renal
[11] = tested on: UO-31 renal

SMILES	TGI [1]	TGI [2]	TGI [3]	TGI [4]	TGI [5]	TGI [6]	TGI [7]	TGI [8]	TGI [9]	TGI [10]	TGI [11]
CCOC(=O)c1[nH]cc(C)c1-c1cccn1-c1ccc(Cl)cc1[N+](=O)[O-]	30.4 µM	51.2 µM	> 100 µM	27.5 µM	48 µM	> 100 µM	61.5 µM	55.7 µM	64.7 µM	41.7 µM	54.9 µM
O=C1/C(=C/c2ccc(Cl)cc2)Oc2cc(O)ccc21	> 100 µM	46.6 µM	> 100 µM	> 100 µM	89.3 µM	> 100 µM	> 100 µM	> 100 µM	> 100 µM	96.8 µM	47.1 µM
O=C(CCBr)N1CCN(C(=O)CCBr)CC1	151 µM	455 µM	215 µM	242 µM	113 µM	181 µM	153 µM	252 µM	169 µM	488 µM	293 µM
CCC(=O)Nc1cccc(N=Cc2ccc(OC(=O)/C=C\c3ccccc3)cc2)c1	> 75 µM	> 75 µM	> 75 µM	> 75 µM	> 75 µM	> 75 µM	> 75 µM	> 75 µM	> 75 µM	> 75 µM	> 75 µM
O=c1c2c3c(sc2nc2n1N=CN(c1ccccc1)C2)CCCC3	> 100 µM	> 100 µM	> 100 µM	> 100 µM	> 100 µM	> 100 µM	> 100 µM	> 100 µM	> 100 µM	> 100 µM	> 100 µM
CN1CCN(C(=O)CCC(=O)Nc2cc3c(c4ccccc24)-c2ccc4ccccc4c2C3)CC1	2.95 µM	5.81 µM	3.03 µM	2.93 µM	3.72 µM	3.08 µM	3.57 µM	3.26 µM	3.64 µM	3.27 µM	3.28 µM
Cc1nn(C(=O)c2ccccc2O)c2c1C(c1ccc(O)cc1O)SC(N)=N2 (centres undefined)	> 10 µM	8.84 µM	> 10 µM	> 10 µM	> 10 µM	> 10 µM	> 10 µM	> 10 µM	> 10 µM	> 10 µM	8.02 µM
COc1ccc2nc3c([N+](=O)[O-])ccc(NCCN(C)C)c3c(N)c2c1	0.296 µM	4.5 µM	1.1 µM	1.27 µM	2.95 µM	2.95 µM	3.12 µM	4.16 µM	2.76 µM	3.09 µM	2.87 µM
COC(=O)C(Cc1ccccc1)NC(=O)C(CS)NC(=O)OC(C)(C)C (stereo not drawn) (Boc-Cys-Phe-OMe; configuration not given here)	> 100 µM	> 100 µM	> 100 µM	> 100 µM	> 100 µM	> 100 µM	> 100 µM	> 100 µM	> 100 µM	> 100 µM	> 100 µM
